# From the supplement of paper PMC10307832
# Columns and labels:
# Assay in all cases: relative viability (nuclei count vs DMSO), 5 days (fraction); higher = more cells survive
# [1] = compound: CC1=CC(=CC=C1)NC2=NC(=CS2)C3=CC=NC=C3 + NC(=O)Nc1cc(-c2cccc(F)c2)sc1C(=O)N[C@H]1CCCNC1 [AZD7762] (partner 0.2 µM)
# How it was run: (§1)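 Lung cancer cell lines were pin-tool dosed in 1536-well plates on the day after seeding, with either a lone drug or a fixed anchor-drug dose plus five library-drug doses (not always all listed) in √10 steps. Nuclei were counted on 4× images after 5 days. Relative viability is the ratio of treated-well to vehicle-well nuclei counts, with each value a median of duplicate plates.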
# [2] = compound: CC1=CC(=CC=C1)NC2=NC(=CS2)C3=CC=NC=C3 + Cc1cc(Nc2cc(N3CCN(C)CC3)nc(Sc3ccc(NC(=O)C4CC4)cc3)n2)n[nH]1 [Tozasertib] (partner 0.1 µM)
# How it was run: as §1
# [3] = compound: CC1=CC(=CC=C1)NC2=NC(=CS2)C3=CC=NC=C3 + Nc1nc2[nH]cc(CCc3ccc(C(=O)N[C@@H](CCC(=O)O)C(=O)O)cc3)c2c(=O)[nH]1 [Pemetrexed] (partner 0.2 µM)
# How it was run: as §1
# Masitinib + Phenformin = compound: Cc1ccc(NC(=O)c2ccc(CN3CCN(C)CC3)cc2)cc1Nc1nc(-c2cccnc2)cs1 [Masitinib] + N=C(N)NC(=N)NCCc1ccccc1 [Phenformin] (partner 250 µM)
# How it was run: as §1
Cell Line,relative viability ([1]; first compound 0.08 µM),relative viability ([1]; first compound 0.253 µM),relative viability ([1]; first compound 0.8 µM),relative viability ([1]; first compound 2.53 µM),relative viability ([1]; first compound 8 µM),relative viability ([2]; first compound 0.08 µM),relative viability ([2]; first compound 0.253 µM),relative viability ([2]; first compound 0.8 µM),relative viability ([2]; first compound 2.53 µM),relative viability ([2]; first compound 8 µM),relative viability ([3]; first compound 0.08 µM),relative viability ([3]; first compound 0.253 µM),relative viability ([3]; first compound 0.8 µM),relative viability ([3]; first compound 2.53 µM),relative viability ([3]; first compound 8 µM),relative viability (Masitinib + Phenformin; first compound 0.01 µM),relative viability (Masitinib + Phenformin; first compound 0.03162 µM),relative viability (Masitinib + Phenformin; first compound 0.1 µM),relative viability (Masitinib + Phenformin; first compound 0.3162 µM),relative viability (Masitinib + Phenformin; first compound 1 µM)
201T,0.811,0.79,0.777,0.865,0.618,1.04,0.94,0.961,0.804,0.692,0.339,0.293,0.321,0.301,0.334,0.362,0.409,0.373,0.471,0.44
A549,,,,,,,,,,,,,,,,0.148,0.186,0.153,0.198,0.12
A-427,0.646,0.795,0.815,0.81,0.646,0.245,0.185,0.216,0.213,0.192,0.915,1.02,0.987,0.899,0.932,,0.292,,0.309,0.235
ABC-1,0.675,0.613,0.688,0.628,0.881,0.206,0.173,0.176,0.187,0.237,,,,,,0.204,0.24,0.228,0.209,0.234
BEN,0.641,0.614,0.662,0.566,0.659,0.437,0.557,0.512,0.479,0.563,0.685,0.841,0.936,0.584,0.682,0.288,,0.268,0.272,0.253
CAL-12T,0.527,0.63,0.604,0.516,0.561,0.381,0.277,0.32,0.25,0.185,1.19,0.94,1.15,1.05,1.07,0.525,0.637,0.594,0.553,0.509
COR-L23,,,,,,0.186,0.189,0.155,0.172,0.099,0.184,0.194,0.201,0.189,0.184,0.415,0.434,0.507,0.428,0.417
COR-L 105,,,,,,0.348,0.296,0.282,0.381,0.372,1.01,0.903,0.898,1.02,0.797,0.505,0.542,0.604,0.515,0.425
ChaGo-K-1,0.842,0.83,0.835,0.828,0.75,0.227,0.241,0.241,0.235,0.231,0.259,0.272,0.249,0.266,0.252,0.509,0.455,0.511,0.467,0.411
EKVX,0.63,0.703,,0.764,0.524,0.45,0.395,0.36,0.384,0.294,0.361,0.333,,0.32,0.328,,0.213,0.235,0.214,0.199
EMC-BAC-2,0.933,1.02,1.14,0.909,1.17,0.261,0.286,0.287,0.285,0.323,0.393,0.402,0.413,0.432,0.393,0.485,0.494,0.524,0.53,0.457
EPLC-272H,0.201,0.153,0.445,,0.215,0.294,0.206,0.248,0.313,0.51,0.404,0.375,0.264,0.31,0.332,0.317,0.212,0.285,0.305,0.257
H3255,0.936,0.902,0.866,0.665,0.765,0.627,0.624,0.614,0.599,0.6,0.585,0.546,0.568,0.54,0.54,0.388,0.277,0.374,0.315,0.407
HARA,0.306,0.466,0.317,0.356,0.273,0.112,0.101,0.104,0.104,0.133,0.267,0.22,0.203,0.255,0.276,,0.417,0.399,0.398,0.424
HCC-15,1.11,1.19,1.03,1.03,1.02,0.413,0.443,0.304,0.385,0.298,0.222,0.214,0.203,0.194,0.214,0.448,0.453,0.497,0.459,0.405
HCC-44,0.849,0.853,0.946,0.876,0.88,0.743,0.782,0.857,0.676,0.795,0.537,0.55,0.586,0.663,0.607,0.236,0.188,0.213,0.323,0.185
HCC-78,0.674,0.409,0.613,0.449,0.658,,0.402,0.365,0.405,0.391,0.907,0.963,0.827,0.917,0.9,0.724,0.638,0.752,0.663,0.718
HCC-366,0.32,0.322,0.266,0.24,0.128,0.126,0.0811,0.081,0.0599,0.0456,0.154,0.123,0.121,0.113,0.0949,,0.59,,0.572,0.575
